Results as given in PMC11807725, “Screening and Antioxidant Activities Evaluation of Peptides From Abalone (Haliotis discus hannai Ino)” (Food Science & Nutrition, 2025).
Peptide text beside a SMILES is read from it.

Key:
Format in all cases: cell-based, human
HUVECs [1] = experiment: Cytotoxicity testing of peptides in HUVECs (CCK-8); conditions: for effect on HUVEC viability (in words): vs control p < 0.01; for cytotoxicity to HUVECs (in words) / toxicity to HUVECs (in words) / effect on HUVEC growth (in words): 24 h, CCK-8; for toxicity to HUVECs (in words): concentration range 3.9–1000 μg/mL; for effect on HUVEC growth (in words): within 3.9–1000 μg/mL
Description: Peptide cytotoxicity in HUVECs was assessed using the CCK‐8 assay to determine cell viability (Suo et al. [2022]). HUVECs were digested with 0.25% trypsin, resuspended in RPMI 1640 complete medium containing 10% FBS at a density of 5 × 10^4 cells/mL, and seeded into 96‐well plates at 100 μL/well. Cells were incubated in a CO2 incubator (37°C, 5% CO2) for 12 h.
Control and experimental groups were established with six replicates each. After cell adhesion, 10 μL of peptide solution was added to the experimental groups at final concentrations of 3.9, 7.8, 15.6, 31.25, 62.5, 125, 250, 500, and 1000 μg/mL, whereas the control group received an equivalent volume of complete medium. After 24 h of incubation in the CO2 incubator, 10 μL of CCK‐8 solution was added to each well, and cells were incubated for 1 h. Optical density (OD) was measured at 450 nm using an Infinite M1000 Pro microplate reader (Tecan, Switzerland). Cell viability was calculated using the following formula: Cell Viability%=AS−AO/AC−AO×100% where A C represents the OD of the control group, A S indicates the OD of the experimental group, and A O is the OD of the blank wells.

HUVECs [2] = experiment: Establishment of the AAPH-induced HUVEC oxidative damage model (CCK-8 viability); conditions: 24 h; for cell survival rate: CCK-8
Description: The oxidative damage model was established using the method described by Li et al. ([2023]). HUVECs were seeded into 96‐well plates at a density of 5 × 10^4 cells/mL at 100 μL/well and incubated in a CO2 incubator (37°C, 5% CO2) for 12 h.

HUVECs damaged by AAPH [3] = experiment: ROS levels in AAPH-damaged HUVECs (DCFH-DA); conditions: 24 h after 6 mmol/L AAPH 24 h, DCFH-DA fluorescence
Description: Model and experimental groups were established, and HUVECs were seeded into 96-well plates at a density of 5 × 10^4 cells/mL at 100 μL/well, with six replicates per group. After cell adhesion, the control group received the medium, whereas the model and experimental groups were treated with 10 μL of AAPH solution to a final concentration of 6 mmol/L. After 24 h of incubation, experimental groups were treated with 10 μL of peptide […] at final concentrations of 250, 500, and 1000 μg/mL. The control and model groups received an equivalent volume of the medium. After another 24 h of incubation, ROS levels were measured according to the instructions of the ROS detection kit. Cells were washed twice with PBS, treated with 10 μL of 10 μmol/L DCFH-DA working solution, and incubated in the dark for 30 min in the CO2 incubator (37°C, 5% CO2). The cells were then washed three times with PBS, and the fluorescence intensity was measured using an Infinite […] microplate reader (Tecan, Switzerland).

HUVECs damaged by AAPH [4] = experiment: GSH content in AAPH-damaged HUVECs; conditions: 250, 500, and 1000 μg/mL, 24 h after 6 mmol/L AAPH 24 h; p < 0.05; three replicates
Description: (§1) The model and experimental groups were established, and HUVECs were seeded into 6-well plates at a density of 5 × 10^4 cells/mL at 2 mL/well, with three replicates per group. After cell adhesion, the model and experimental groups were treated with 2 mL of AAPH solution at a final concentration of 6 mmol/L, whereas the control group received an equivalent volume of the medium. After 24 h of incubation, experimental groups were treated with 200 μL of peptide […] at a final concentration of 250, 500, and 1000 μg/mL. The control and model groups received an equivalent volume of the medium. After 24 h incubation, the cells were collected, and the protein content was measured using the BCA protein assay kit. The activities of SOD, CAT, and GSH were determined using the respective assay kits.

HUVECs damaged by AAPH [5] = experiment: SOD activity in AAPH-damaged HUVECs; conditions: 250, 500, and 1000 μg/mL, 24 h after 6 mmol/L AAPH 24 h; p < 0.05; three replicates
Description: as §1

HUVECs damaged by AAPH [6] = experiment: CAT activity in AAPH-damaged HUVECs; conditions: 250, 500, and 1000 μg/mL, 24 h after 6 mmol/L AAPH 24 h; p < 0.05; three replicates
Description: as §1

HUVECs damaged by AAPH [7] = conditions: at different concentrations, 6 mmol/L AAPH model, p > 0.05
Description: The experiment included control, model, and experimental groups. HUVECs were seeded into 96‐well plates at a density of 5 × 10^4 cells/mL at 100 μL per well, with six replicates per group. After cell adhesion, the model and experimental groups were treated with 10 μL of AAPH solution to a final concentration of 6 mmol/L, whereas the control group received an equivalent volume of medium. After 24 h, the experimental groups were treated with 10 μL of peptide solutions to final concentrations of 3.9, 7.8, 15.6, 31.25, 62.5, 125, 250, 500, and 1000 μg/mL. The control and model groups received an equivalent volume of medium.

[8] = concentrations of 3.9–500 μg/mL

Q: With `CC[C@H](C)[C@H](NC(=O)[C@H](CCC(=O)O)NC(=O)[C@H](CCSC)NC(=O)[C@@H]1CCCN1C(=O)[C@@H](NC(=O)[C@H](Cc1c[nH]cn1)NC(=O)[C@H](CC(N)=O)NC(=O)[C@H](CO)NC(=O)[C@H](CCC(N)=O)NC(=O)[C@H](CO)NC(=O)[C@@H](NC(=O)[C@H](Cc1c[nH]c2ccccc12)NC(=O)[C@@H](NC(=O)[C@@H](N)Cc1ccccc1)[C@@H](C)O)C(C)C)[C@@H](C)CC)C(=O)N[C@@H](CCC(=O)O)C(=O)N[C@@H](CCC(=O)O)C(=O)N[C@@H](CC(=O)O)C(=O)N[C@@H](CO)C(=O)N[C@@H](C)C(=O)N[C@@H](CCCCN)C(=O)N1CCC[C@H]1C(=O)N[C@@H](Cc1c[nH]c2ccccc12)C(=O)N[C@@H](CC(C)C)C(=O)O` (H-FTWVSQSNHIPMEIEEDSAKPWL-OH; N-terminus and C-terminus assumed) as the compound, how does the “effect on HUVEC viability (in words)” value (HUVECs [1]; 31.25–1000 μg/mL) read?
A: clear inhibitory effect

Q: How did the cell survival rate (HUVECs [2]; AAPH 4 mmol/L) turn out when `CC(C)(N=NC(C)(C)C(=N)N)C(=N)N.Cl.Cl` [AAPH, 2,2′‐azobis(2‐methylpropionamidine) dihydrochloride] was run?
A: 92.64% ± 0.06%

Q: What about the cell survival rate (HUVECs [2]; AAPH 6 mmol/L) of the same compound?
A: 87.35% ± 0.05%

Q: And the cell survival rate (HUVECs [2]; AAPH 8 mmol/L)?
A: 78.64% ± 0.03%

Q: What about the cell survival rate (HUVECs [2]; AAPH 10 mmol/L) of the same compound?
A: 43.10% ± 0.04%

Q: And the cell survival rate (HUVECs [2]; AAPH 12 mmol/L)?
A: 5.07% ± 0.01%

Q: What about the cell viability (HUVECs [2]; AAPH 0.25, 0.5, 1, and 2 mmol/L, significantly higher than control (p < 0.01)) of the same compound?
A: > 100%

Q: How did the “cytotoxicity to HUVECs (in words)” value (HUVECs [1]; [8]) turn out when `CC(C)[C@H](NC(=O)[C@H](C)N)C(=O)N[C@H](C(=O)N[C@@H](CCC(=O)O)C(=O)N[C@@H](CO)C(=O)N[C@@H](CCCCN)C(=O)O)C(C)C` [AVVESK] (H-AVVESK-OH; N-terminus and C-terminus assumed) was run?
A: no cytotoxicity

Q: For `C[C@H](NC(=O)[C@@H](N)CC(=O)O)C(=O)N[C@@H](CO)C(=O)N[C@@H](CS)C(=O)N[C@@H](CCCCN)C(=O)O` [DASCK] (H-DASCK-OH; N-terminus and C-terminus assumed), which “toxicity to HUVECs (in words)” value (HUVECs [1]) is on record?
A: no toxicity

Q: And the “effect on HUVEC growth (in words)” value (HUVECs [1])?
A: promoted cell growth

Q: With `CC[C@H](C)[C@H](NC(=O)[C@H](CC(=O)O)NC(=O)[C@@H](N)CC(=O)O)C(=O)N[C@@H](CCSC)C(=O)N[C@@H](CCC(=O)O)C(=O)N[C@@H](CC(=O)O)C(=O)N[C@@H](CCCCN)C(=O)N[C@@H](CC(=O)O)C(=O)N[C@@H](CC(N)=O)C(=O)N[C@@H](Cc1ccccc1)C(=O)O` [DDIMEDKDNF] (H-DDIMEDKDNF-OH; N-terminus and C-terminus assumed) as the compound, how does the “cytotoxicity to HUVECs (in words)” value (HUVECs [1]; 3.9–250 μg/mL) read?
A: nontoxic

Q: How did the “effect on HUVEC growth (in words)” value (HUVECs [1]) turn out when `NCCCC[C@H](NC(=O)[C@H](CC(=O)O)NC(=O)[C@H](CCC(=O)O)NC(=O)[C@H](CC(=O)O)NC(=O)[C@H](CCC(=O)O)NC(=O)[C@H](CC(=O)O)NC(=O)[C@H](CCC(=O)O)NC(=O)[C@@H](N)CC(=O)O)C(=O)O` [DEDEDEDK] (H-DEDEDEDK-OH; N-terminus and C-terminus assumed) was run?
A: promoted cell growth

Q: What about the “ROS content compared with the model group (in words)” value (HUVECs damaged by AAPH [3]; DEDEDEDK 1000 μg/mL, p < 0.05) of the same compound?
A: significantly reduced

Q: What about the “ROS levels compared with the model group (in words)” value (HUVECs damaged by AAPH [3]; DEDEDEDK 250 and 500 μg/mL, p > 0.05) of the same compound?
A: no significant change

Q: And the “GSH content in the cells vs model group (in words)” value (HUVECs damaged by AAPH [4])?
A: significantly increased

Q: And the “SOD activity in the cells vs model group (in words)” value (HUVECs damaged by AAPH [5])?
A: increased significantly

Q: And the “CAT activity in the cells vs model group (in words)” value (HUVECs damaged by AAPH [6])?
A: increased significantly

Q: Which “toxicity to HUVECs (in words)” value (HUVECs [1]) does the source give for `CSCC[C@H](NC(=O)[C@H](Cc1ccc(O)cc1)NC(=O)CNC(=O)[C@H](CCSC)NC(=O)[C@@H](NC(=O)[C@H](CO)NC(=O)[C@@H](NC(=O)[C@@H](N)CC(=O)O)[C@@H](C)O)[C@@H](C)O)C(=O)N[C@@H](C)C(=O)N[C@@H](C)C(=O)N[C@@H](CCCCN)C(=O)O` [DTSTMGYMAAK] (H-DTSTMGYMAAK-OH; N-terminus and C-terminus assumed) here?
A: no toxicity

Q: And the “cell viability compared with the model group (in words)” value (HUVECs damaged by AAPH [7])?
A: did not show significant differences

Q: Which “effect on HUVEC growth (in words)” value (HUVECs [1]) does the source give for `N[C@@H](CCC(=O)O)C(=O)N[C@@H](CC(=O)O)C(=O)N[C@@H](CCC(=O)O)C(=O)O` [EDE] (H-Glu-Asp-Glu-OH; N-terminus and C-terminus assumed) here?
A: promoted cell growth

Q: And the “cell viability compared with the model group (in words)” value (HUVECs damaged by AAPH [7])?
A: did not show significant differences

Q: What does the source list for `CC(C)[C@H](NC(=O)[C@H](CCC(=O)O)NC(=O)[C@H](CCC(=O)O)NC(=O)[C@@H](NC(=O)[C@@H](NC(=O)[C@H](CCC(=O)O)NC(=O)[C@@H]1CCCN1C(=O)[C@H](CCC(=O)O)NC(=O)[C@@H](N)Cc1ccccc1)[C@@H](C)O)[C@@H](C)O)C(=O)N[C@@H](CCCNC(=N)N)C(=O)O` [FEPETTEEVR] (H-FEPETTEEVR-OH; N-terminus and C-terminus assumed)?
A: toxicity to HUVECs (in words) (HUVECs [1]): no toxicity; effect on HUVEC growth (in words) (HUVECs [1]): promoted cell growth

Q: Which results are given for `CC[C@H](C)[C@H](NC(=O)[C@H](Cc1c[nH]cn1)NC(=O)CNC(=O)[C@@H](N)Cc1ccccc1)C(=O)N[C@@H](CO)C(=O)N[C@H](C(=O)O)C(C)C` [FGHISV] (H-FGHISV-OH; N-terminus and C-terminus assumed)?
A: cytotoxicity to HUVECs (in words) (HUVECs [1]; [8]): no cytotoxicity; cell viability compared with the model group (in words) (HUVECs damaged by AAPH [7]): did not show significant differences

Q: Which “effect on HUVEC viability (in words)” value (HUVECs [1]; 3.9–62.5 μg/mL) does the source give for `NCC(=O)N[C@@H](CCC(=O)O)C(=O)N[C@@H](Cc1ccc(O)cc1)C(=O)N[C@@H](CCC(N)=O)C(=O)O` [GEYQ] (H-GEYQ-OH; N-terminus and C-terminus assumed) here?
A: clear inhibitory effect
